Test [1] concerns the target T1, TRAF6/Uev1A/Ubc13 (Homo sapiens, UniProt Q9Y4K3).
T1 sequence (Q9Y4K3 1-522): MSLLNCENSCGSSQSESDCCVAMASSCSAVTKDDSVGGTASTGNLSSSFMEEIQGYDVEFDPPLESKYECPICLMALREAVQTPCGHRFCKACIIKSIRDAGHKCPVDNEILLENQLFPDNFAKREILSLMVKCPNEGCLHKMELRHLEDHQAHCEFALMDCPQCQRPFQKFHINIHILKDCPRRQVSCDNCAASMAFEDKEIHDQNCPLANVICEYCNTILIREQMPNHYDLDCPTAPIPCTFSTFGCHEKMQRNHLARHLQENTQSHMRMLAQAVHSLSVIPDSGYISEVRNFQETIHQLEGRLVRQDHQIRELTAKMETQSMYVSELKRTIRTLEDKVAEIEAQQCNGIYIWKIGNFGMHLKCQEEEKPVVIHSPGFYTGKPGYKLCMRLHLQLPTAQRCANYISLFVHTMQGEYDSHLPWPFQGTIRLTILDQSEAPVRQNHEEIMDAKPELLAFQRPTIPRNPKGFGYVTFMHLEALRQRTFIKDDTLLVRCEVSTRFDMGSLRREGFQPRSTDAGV
Put plainly: TRAF6/Uev1A/Ubc13 plate-based ubiquitin ligase assay. The class given is biochemical. The method in brief:
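Ligase activity was read as luminescence from anti-Flag/HRP detection of Flag-ubiquitin bound to casein-blocked Ni-plates alongside His-ubiquitin after a 1 h room-temperature reaction. Buffer: 62.5 mM Tris pH 7.5, 6.25 mM MgCl2, 1.0 mM DTT, 2 μM ATP; E1, Uev1a/Ubc13 and TRAF6 added last to start. IC50s derived across compound concentrations.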

In test [2] the test system is ICAM-1 expression in A549 cells. The experiment in a line: ICAM assay (IL-1 induced ICAM-1/CD54 expression in A549 cells). The class given is cell-based, human. The conditions noted are these: Homo sapiens, A549, ICAM assay. From the text:
The expression of intercellular adhesion molecule (ICAM)-1 in endothelial cells is pivotal in supporting lymphocyte migration across the vascular endothelium. TNF/IL-1 induces the NF-kB pathway in which NF-kB acts as a transcription factor and activation of NF-kB induces ICAM expression. IkB inhibits NF-KB by binding to it and retaining NF-kB in the cytoplasm. Upon cytokine stimulation, several signaling molecule including TRAF6, IKKs, and TAK1 are activated which lead to the phosphorylation of IkB. Phosphorylated IkB is then ubiquitinated by the SCF complex and degraded by proteasome, thereby releasing NF-kB to translocate into the nucleus. In the nucleus, NF-kB binds to DNA and activates transcription of various genes that are involved in inflammation, cell survival, and apoptosis. The ICAM assay is a primary assay for HTS as well as a cell based assay for TRAF6 inhibitors.
The following materials are used 96-well plates; F12K complete medium that includes 10% FBS and 1% P/S (penicillin/streptomycin); 1×PBS; 5 ug/ml IL-1, Human CD54 (CALTAG Laboratory, Cat#MHCD5400-4); anti-mouse-IgG (Jackson Lab, Cat#115-035 146); and A549 cells.
Procedure. 10,000 A549 cells/well were seeded in 100 μl F12K complete medium in a 96-well white plate. The seeded plate was incubate at 37° C. incubator in 5% CO2 overnight. After the overnight incubation, 4 μl of diluted test compound was added and incubated for 1 hour at 37° C. After the 1 hour incubation, 4 μl of 25 ng/ml IL-1 was added to each well and the cells were stimulated at 37° C. for 4 hours.
After stimulation, the cells were stained with CD54 (1:1000 diluted with medium) and anti-mouse IgG (1:1100 diluted with medium) for 1 hour. Subsequently, the medium was removed and each well was washed with 200 μl of PBS three times. Detection of activity was performed by addition of 100 μl/well of lumino substrate.

Test [3] deals with APC11/APC2 (Homo sapiens, UniProt Q9NYG5+Q9UJX6). Put plainly: APC-11/APC-2 ligase assay (APC auto ubiquitination). Particulars: APC assay. The class given is biochemical. The method, then: For the assays described below, the TRAF6/Uev1A/UBC13 assay is the biochemical plate-based assay of TRAF6 ligase activity using Ubc13 as the E2 enzyme. The gel-based assay is the biochemical solution-based TRAF6 ligase assay (by SDS-PAGE and Western blot) to confirm the plate-based ELISA assay. The APC assay is an assay which is another E3 ligase (APC2/APC11) biochemical assay.
E3 (His APC11/APC2— “APC”) auto ubiquitination was measured as described in U.S. patent application Ser. No. 09/826,312 (Publication No. U.S. 2002 0042083 A1), which is incorporated by reference in its entirety. Details of the protocol are described below. Activity in the presence of the compound was determined relative to a parallel control in which only DMSO was added. Values of the IC50 were typically determined using 6 or 8 different concentrations of the compound, although as few as 2 concentrations may be used to approximate the IC50 value.
Nickel coated 96 well plates (Pierce 15242) were blocked for 1 hour with 100 μl of blocking buffer at room temperature. The plates were washed 4 times with 225 μl of 1 […]PBS and 80 μl of the reaction buffer were added that contained 100 ng/well of Flag ubiquitin. To this, 10 μl of the test compound diluted in DMSO were added. After the test compound was added, 10 μl of E1 (human), E2 (Ubch5c), and APC in Protein Buffer was added to obtain a final concentration of 5 ng/well of E1, 20 ng/well of E2 and 100 ng/well of APC. The plates were shaken for 10 minutes and incubated at room temperature for 1 hour. After incubation, the plates were washed 4 times with 225 μl of 1×PBS and 100 μl/well of Antibody Mix were added to each well. The plates were incubated at room temperature for another hour after which they were washed 4 times with 225 μl of 1×PBS and 100 μl/well of Lumino substrate were added to each well. The luminescence was measured by using a BMG luminescence microplate reader. The Blocking Buffer (1% Casein in 1×PBS) was stored at 4° C. until use.
The reaction buffer consisted of 62.5 mM Tris pH 7.6 (Trizma Base—Sigma T 8524), 3 mM MgCl2 (Magnesium Chloride—Sigma M 2393), 1 mM DTT (Sigma D 9779), 2.5 mM ATP (Roche Boehringer Mann Corp. 635 316), 100 ng/well of Flag ubiquitin, 0.1% BSA (Sigma A 7906), and 0.05% Tween 20 (Sigma P 7949).
The Protein Buffer consisted of 20 mM Tris pH 7.6, 10% glycerol (Sigma G 5516) and 1 mM DTT.
The antibody mix consisted of 0.25% BSA (Sigma A 7906) in 1×PBS, 1/50,000 anti Flag (Sigma F 3165), 1/100,000 of anti Mouse IgG HRP (Jackson Imrunoresearch #115 035 146).
The substrate mix consisted of SuperSignal Substrate from Pierce (catalog number 37070ZZ) and was prepared by mixing 100 ml of the peroxide solution, 100 ml of the enhancer solution and 100 ml of Milli Q® water.

APC11/APC2, sequence (Q9NYG5 whole entry): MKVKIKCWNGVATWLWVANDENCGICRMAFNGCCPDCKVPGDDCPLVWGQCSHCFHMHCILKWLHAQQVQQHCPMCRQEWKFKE
APC11/APC2, sequence (Q9UJX6 whole entry): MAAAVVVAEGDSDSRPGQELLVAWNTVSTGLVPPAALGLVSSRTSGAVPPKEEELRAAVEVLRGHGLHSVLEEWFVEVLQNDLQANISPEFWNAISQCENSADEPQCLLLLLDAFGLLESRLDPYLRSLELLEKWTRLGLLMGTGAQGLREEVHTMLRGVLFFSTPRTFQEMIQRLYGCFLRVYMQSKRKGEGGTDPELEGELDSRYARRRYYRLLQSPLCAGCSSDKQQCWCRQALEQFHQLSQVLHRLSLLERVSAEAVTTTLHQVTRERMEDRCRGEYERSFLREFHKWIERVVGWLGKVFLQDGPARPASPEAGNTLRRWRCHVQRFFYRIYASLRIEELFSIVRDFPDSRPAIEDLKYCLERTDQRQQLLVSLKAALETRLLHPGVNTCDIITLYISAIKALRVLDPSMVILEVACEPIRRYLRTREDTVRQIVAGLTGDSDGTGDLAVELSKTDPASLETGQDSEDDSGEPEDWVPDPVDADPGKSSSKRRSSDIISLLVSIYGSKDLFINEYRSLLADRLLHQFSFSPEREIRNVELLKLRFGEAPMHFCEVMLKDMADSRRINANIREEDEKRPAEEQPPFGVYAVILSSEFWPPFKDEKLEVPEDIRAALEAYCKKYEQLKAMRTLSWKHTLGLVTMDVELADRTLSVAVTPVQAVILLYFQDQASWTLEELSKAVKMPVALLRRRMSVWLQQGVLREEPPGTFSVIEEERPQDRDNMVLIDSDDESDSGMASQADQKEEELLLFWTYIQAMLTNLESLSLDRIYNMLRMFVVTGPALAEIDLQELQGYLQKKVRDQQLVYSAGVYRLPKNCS

The term IC50 denotes the concentration that gives 50% inhibition. Higher therefore signals weaker potency in that assay. As for `CC(=O)Nc1ccc(-c2ccc(C(C)(C)C)cc2)c2nonc12` [compound 453, N-(7-(4-t-butylphenyl)-2,1,3-benzoxadiazol-4-yl)acetamide], the IC50 is ≥ 20 µM in test [1], ≥ 20 µM in test [2] and 1 to 20 µM in test [3].

As for `O=[N+]([O-])c1ccc(-c2ccc3c(c2)OCO3)c2nonc12` [compound 467, 4-(benzodioxol-5-yl)-7-nitro-2,1,3-benzoxadiazole], the half-inhibitory concentration (IC50) in test [1], in test [2] and in test [3] was 1 to 20 µM in each case.

Regarding `COCCNS(=O)(=O)c1ccc(Cl)c2nonc12` [compound 438, 7-chloro-N-(2-methoxyethyl)-2,1,3-benzoxadiazole-4-sulfonamide], the IC50 in test [1], in test [2] and in test [3] was ≥ 20 µM throughout.

For the compound `O=S(=O)(Nc1cccc2ccccc12)c1c(Cl)cc(Nc2cccc3ccccc23)c2nonc12` [compound 417, 5-chloro-N-(naphthalen-1-yl)-7-(naphthalen-1-ylamino)-2,1,3-benzoxadiazole-4-sulfonamide], the IC50 in test [1], in test [2] and in test [3] was 1 to 20 µM in each case.

Turning to `O=S(=O)(Nc1ncccc1OCc1ccccc1)c1ccc(N2CCOCC2)c2nonc12` [compound 382, N-(3-benzyloxypyridin-2-yl)-7-(morpholin-4-yl)-2,1,3-benzoxadiazole-4-sulfonamide], the 50% inhibitory concentration (IC50) in test [1], in test [2] and in test [3] was ≥ 20 µM each time.

Turning to `O=S(=O)(Nc1ccccc1F)c1ccc(N2CCOCC2)c2nonc12` [compound 372, N-(2-fluorophenyl)-7-(morpholin-4-yl)-2,1,3-benzoxadiazole-4-sulfonamide], the IC50 in test [1], in test [2] and in test [3] was ≥ 20 µM each time.

Take `O=[N+]([O-])c1ccc(-c2ccccc2F)c2nonc12` [compound 437, 7-(2-fluorophenyl)-4-nitro-2,1,3-benzoxadiazole]: the values for the IC50 in test [1], in test [2] and in test [3] were ≥ 20 µM, 1 to 20 µM and 1 to 20 µM, respectively.

Consider `O=S(=O)(Nc1ccc2[nH]ccc2c1)c1ccc(Cl)c2nonc12` [compound 363, 7-chloro-N-(1H-indol-5-yl)-2,1,3-benzoxadiazole-4-sulfonamide], for which the results for the IC50 in test [1], in test [2] and in test [3] were ≥ 20 µM, 1 to 20 µM and ≥ 20 µM, respectively.

As for `Cc1cc(C)c(NS(=O)(=O)c2ccc(Cl)c3nonc23)c(C)c1` [compound 355, 7-chloro-N-mesityl-2,1,3-benzoxadiazole-4-sulfonamide], the IC50 in test [1], in test [2] and in test [3] was ≥ 20 µM in each case.

Consider `CC(C)c1ccccc1NS(=O)(=O)c1ccc(Cl)c2nonc12` [compound 347, 7-chloro-N-(2-isopropylphenyl)-2,1,3-benzoxadiazole-4-sulfonamide], for which the IC50 in test [1] is ≥ 20 µM; in test [2], 1 to 20 µM; in test [3], ≥ 20 µM.

`O=S(=O)(Nc1cccc2ccc(O)cc12)c1ccc(Cl)c2nonc12` [compound 383, 7-chloro-N-(7-hydroxynaphthalen-1-yl)-2,1,3-benzoxadiazole-4-sulfonamide]: the IC50 in test [1], in test [2] and in test [3] was 1 to 20 µM in each case.

With `O=S(=O)(NCc1ccccn1)c1ccc(Cl)c2nonc12` [compound 446, 7-chloro-N-(pyridin-2-ylmethyl)-2,1,3-benzoxadiazole-4-sulfonamide], the IC50 in test [1] is ≥ 20 µM; in test [2], 1 to 20 µM; in test [3] it was ≥ 20 µM.

As to `O=S(=O)(c1ccc(Sc2cccc3ccccc23)c2nonc12)N1CCC2(CC1)OCc1ccccc12` [compound 334, 1′-{(7-[naphth-1-ylthio]-2,1,3-benzoxadiazol-4-yl)}sulfonyl-3H-spiro[2-benzofuran-1,4′-piperidine]], the IC50 in test [1] was ≥ 20 µM; in test [2] it was 1 to 20 µM; in test [3] it was ≥ 20 µM.

As to `CC(C)(C)c1ccc(-c2ccc(N)c3nonc23)cc1` [compound 435, 7-(4-t-butylphenyl)-2,1,3-benzoxadiazol-4-amine], the IC50 in test [1], in test [2] and in test [3] was ≥ 20 µM each time.

In the case of `O=S(=O)(Nc1ccccc1Br)c1ccc(Cl)c2nonc12` [compound 424, N-(2-bromophenyl)-7-chloro-2,1,3-benzoxadiazole-4-sulfonamide], the IC50 in test [1], in test [2] and in test [3] was ≥ 20 µM throughout.

For `COc1ccc(-c2cc3nsnc3cc2F)cc1` [compound 462, 5-(4-methoxyphenyl)-6-fluoro-2,1,3-benzthiadiazole], the half-inhibitory concentration (IC50) in test [1], in test [2] and in test [3] was ≥ 20 µM throughout.

Turning to `Cc1cc(F)ccc1NS(=O)(=O)c1ccc(Cl)c2nonc12` [compound 358, 7-chloro-N-(4-fluoro-2-methylphenyl)-2,1,3-benzoxadiazole-4-sulfonamide], the IC50 in test [1], in test [2] and in test [3] was ≥ 20 µM each time.

On to `Nc1ccc(Nc2cccc(F)c2F)c2nonc12` [compound 396, 7-{(2,3-difluorophenyl)amino}-2,1,3-benzoxadiazol-4-amine], for which the IC50 in test [1], in test [2] and in test [3] was ≥ 20 µM throughout.

The values are drawn from patent US20050282818A1, “Ubiquitin ligase inhibitors” (Rigel Pharmaceuticals, Inc., priority 2004, published 2005).
